Source: patent US20130109721A1, “FAAH Inhibitors” (Ironwood Pharmaceuticals, Inc., priority 2009, published 2013)

What follows are compounds tested against T1, FAAH (Homo sapiens, UniProt O00519) (assay: FAAH inhibition, human brain membrane homogenate assay). Details: average; FAAH extracted from human brain homogenate; read-out: Human brain FAAH Extract IC50.
T1 construct: FAAH activity was assayed in the respective homogenates described herein (Rat brain, Mouse brain or Human brain); tissue Analytical Biological Services (ABS), Inc; host or cells: human brain cortex membrane homogenate
T1 sequence (O00519 1-579): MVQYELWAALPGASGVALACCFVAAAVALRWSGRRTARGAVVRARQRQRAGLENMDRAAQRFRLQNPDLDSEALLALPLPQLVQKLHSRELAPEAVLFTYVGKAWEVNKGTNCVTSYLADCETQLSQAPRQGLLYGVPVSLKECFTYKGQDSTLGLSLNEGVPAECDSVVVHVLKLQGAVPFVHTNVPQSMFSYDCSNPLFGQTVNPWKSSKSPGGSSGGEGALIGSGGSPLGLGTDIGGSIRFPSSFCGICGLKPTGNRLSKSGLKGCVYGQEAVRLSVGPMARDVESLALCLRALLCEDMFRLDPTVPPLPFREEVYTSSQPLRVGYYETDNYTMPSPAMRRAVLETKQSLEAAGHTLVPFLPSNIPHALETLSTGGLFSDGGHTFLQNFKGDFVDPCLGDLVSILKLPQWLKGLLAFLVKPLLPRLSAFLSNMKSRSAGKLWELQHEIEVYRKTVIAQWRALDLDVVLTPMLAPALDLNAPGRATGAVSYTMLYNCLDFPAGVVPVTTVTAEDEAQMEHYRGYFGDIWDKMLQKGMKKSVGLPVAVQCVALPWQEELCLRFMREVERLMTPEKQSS
Format: biochemical
Description: About 10 g of frozen normal human brain cortex tissue was obtained (e.g., from Analytical Biological Services (ABS), Inc. (Wilmington, Del.)). The brain tissue was thawed and transferred to a large ceramic mortar on ice. 50 mL of ice-cold “homogenization buffer” (20 mM HEPES buffer, pH 7.0, with 1 mM MgCl2) was added to the mortar and the tissue was homogenized with a pestle. The homogenate was centrifuged at 36,500 g for 20 minutes at 4° C. The supernatants were discarded and the pellets were re-suspended in homogenization buffer and centrifuged as before. The supernatants were again discarded and the pellets were re-suspended in 30 mL homogenization buffer and incubated in a 37° C. water bath for 20 minutes. The homogenate was then centrifuged as before. The supernatant was discarded and the membrane pellets were re-suspended in 30 mL “resuspension buffer” (50 mM Tris-HCl buffer, pH 7.4, containing 1 mM EDTA and 3 mM MgCl2). A Bradford Protein assay was performed to determine protein concentration. The protein was aliquotted into screw cap Cryo tubes each containing ˜200 μL, flash frozen in liquid nitrogen and stored at −80° C. until used for the assay.
FAAH activity was assayed in the respective homogenates described herein (Rat brain, Mouse brain or Human brain) for certain exemplary substrate compounds using a modification of the method of Omeir et al. (1995 Life Sci 56:1999) and Fowler et al. (1997 J. Pharmacol Exp Ther 283:729). For assay of FAAH activity in rat brain membrane (RBM) homogenates, RBM homogenates (7 μg protein in 20 μL final volume of 10 mM Tris pH 6.5) were mixed with 180 μL of a mixture of the following: 2.0 μM unlabelled anandamide, 0.03 μCi radio labeled anandamide [ethanolamine 1-^3H] (40-60 Cis/mmol, product number ART-626, American Radiolabeled Chemicals, St. Louis, Mo.), 1 mg/mL Bovine Serum Albumin (fatty acid-free BSA, electrophoresis grade, Sigma, St. Louis, Mo.), 10 mM Tris-HCl (pH 6.5), and 1 mM EDTA in the presence and absence of test compounds (vehicle was DMSO at a final concentration of 1%) and incubated for 10 minutes at 37° C. Samples were placed on ice to terminate the reactions.
^3H-ethanolamine product and un-reacted ^3H-anandamide substrate were then separated either: (1) by using chloroform/methanol extraction or (2) by passing the reaction mixture through a glass fiber filter containing activated charcoal. Samples were extracted with chloroform/methanol by adding 0.4 mL of chloroform/methanol (1:1 v/v), vigorously mixing the samples, and separating the aqueous and organic phases by centrifugation. Radioactivity (corresponding to FAAH-catalyzed breakdown of ^3H-anandamide) found in aliquots (0.2 mL) of the aqueous phase was determined by liquid scintillation counting with quench correction. IC50 values were determined as described by Jonsson et al. (2001 Br. J. Pharmacol. 133:1263). Alternatively, reactions were purified using a modification of the solid-phase extraction method described by Wilson et al (2003 Anal. Biochem. 318:270). This method was modified as follows: after reactions were incubated at 37° C. for 10 minutes and chilled on ice, the reaction mixtures were acidified by adding 10 μL of sodium phosphate solution [0.5M (pH 2.0)]. Next, 90 μL aliquots of the acidified reaction mixtures were applied to activated charcoal (that had been previously washed with methanol as described by Wilson et al. (supra)) containing 80 μL of water on top of a glass fiber filter, centrifuged, and the radioactivity in the eluate was counted as described previously by Wilson et al. (supra).
Table 1 provides activity data for certain compounds tested for inhibition of FAAH using the FAAH rat, mouse and human brain homogenate assays. […]

| Structure (SMILES) | IC50 |
| --- | --- |
| COc1cc(NC(=O)C(=O)c2c(C)n(Cc3ccc(Cl)cc3)c3sccc23)ccn1 [Compound I-09, 2-(6-(4-chlorobenzyl)-5-methyl-6H-thieno[2,3-b]pyrrol-4-yl)-N-(2-methoxypyridin-4-yl)-2-oxoacetamide] | 0.031 µM |
| Cc1c(C(=O)C(=O)Nc2cccc(Cl)c2)c(-c2ccccc2)c(C)n1Cc1ccc(Cl)cc1 [Compound I-20, 2-(1-(4-chlorobenzyl)-2,5-dimethyl-4-phenyl-1H-pyrrol-3-yl)-N-(3-chlorophenyl)-2-oxoacetamide] | > 5 µM |
| COc1ccc(Cn2c(C)cc(C(=O)C(=O)Nc3ccnc(OC)c3)c2C)cc1 [Compound I-22, 2-(1-(4-methoxybenzyl)-2,5-dimethyl-1H-pyrrol-3-yl)-N-(2-methoxypyridin-4-yl)-2-oxoacetamide] | 4.11 µM |
| Cc1c(C(=O)C(=O)Nc2cccc(Cl)c2)c2ccsc2n1Cc1ccc(Cl)cc1 [Compound I-08, 2-(6-(4-chlorobenzyl)-5-methyl-6H-thieno[2,3-b]pyrrol-4-yl)-N-(3-chlorophenyl)-2-oxoacetamide] | 0.797 µM |
| Cc1c(C(=O)C(=O)Nc2cccc(Cl)c2)c2c(n1Cc1ccc(Cl)cc1)CCC(C)(C)C2 [Compound I-14, 2-(1-(4-chlorobenzyl)-2,5,5-trimethyl-4,5,6,7-tetrahydro-1H-indol-3-yl)-N-(3-chlorophenyl)-2-oxoacetamide] | 0.202 µM |
| COc1cc(NC(=O)C(=O)c2c(-c3ccccc3)c(C)n(Cc3ccc(Cl)cc3)c2C)ccn1 [Compound I-19, 2-(1-(4-chlorobenzyl)-2,5-dimethyl-4-phenyl-1H-pyrrol-3-yl)-N-(2-methoxypyridin-4-yl)-2-oxoacetamide] | > 5 µM |
| Cc1c(C(=O)C(=O)Nc2cccc(Cl)c2)cc(-c2ccccc2)n1Cc1ccc(Cl)cc1 [Compound I-25, 2-(1-(4-chlorobenzyl)-2-methyl-5-phenyl-1H-pyrrol-3-yl)-N-(3-chlorophenyl)-2-oxoacetamide] | > 50 µM |
| Cc1c(C(=O)C(=O)Nc2cccc(Cl)c2)c2c(n1Cc1ccc(Cl)cc1)CCCCC2 [Compound I-12, 2-(1-(4-chlorobenzyl)-2-methyl-1,4,5,6,7,8-hexahydrocyclohepta[b]pyrrol-3-yl)-N-(3-chlorophenyl)-2-oxoacetamide] | 0.234 µM |
| COc1cc(NC(=O)C(=O)c2c3c(n(Cc4ccc(Cl)cc4)c2C)CCCCC3)ccn1 [Compound I-13, 2-(1-(4-chlorobenzyl)-2-methyl-1,4,5,6,7,8-hexahydrocyclohepta[b]pyrrol-3-yl)-N-(2-methoxypyridin-4-yl)-2-oxoacetamide] | 0.009 µM |
| COc1cc(NC(=O)C(=O)c2c3c(n(Cc4ccc(Cl)cc4)c2C)CCC(C)(C)C3)ccn1 [Compound I-15, 2-(1-(4-chlorobenzyl)-2,5,5-trimethyl-4,5,6,7-tetrahydro-1H-indol-3-yl)-N-(2-methoxypyridin-4-yl)-2-oxoacetamide] | 0.094 µM |
| COc1cc(NC(=O)C(=O)c2cc(C)n(Cc3ccc(Cl)cc3)c2-c2ccccc2)ccn1 [Compound I-23, 2-(1-(4-chlorobenzyl)-5-methyl-2-phenyl-1H-pyrrol-3-yl)-N-(2-methoxypyridin-4-yl)-2-oxoacetamide] | 2.56 µM |
| Cc1c(C(=O)C(=O)Nc2cccc(Cl)c2)c2c(n1Cc1ccc(Cl)cc1)CCCC2 [Compound I-16, 2-(1-(4-chlorobenzyl)-2-methyl-4,5,6,7-tetrahydro-1H-indol-3-yl)-N-(3-chlorophenyl)-2-oxoacetamide] | 0.119 µM |
| Cc1cc(C(=O)C(=O)Nc2cccc(Cl)c2)c(-c2ccccc2)n1Cc1ccc(Cl)cc1 [Compound I-24, 2-(1-(4-chlorobenzyl)-5-methyl-2-phenyl-1H-pyrrol-3-yl)-N-(3-chlorophenyl)-2-oxoacetamide] | > 50 µM |
| Cc1c(C(=O)C(=O)Nc2ccncc2)cc(-c2ccccc2)n1Cc1ccc(Cl)cc1 [Compound I-26, 2-(1-(4-chlorobenzyl)-2-methyl-5-phenyl-1H-pyrrol-3-yl)-2-oxo-N-(pyridin-4-yl)acetamide] | > 50 µM |
| COc1cc(NC(=O)C(=O)c2cc(C)n(Cc3ccc(Cl)cc3Cl)c2C)ccn1 [Compound I-21, 2-(1-(2,4-dichlorobenzyl)-2,5-dimethyl-1H-pyrrol-3-yl)-N-(2-methoxypyridin-4-yl)-2-oxoacetamide] | 1.01 µM |
| COc1cc(NC(=O)C(=O)c2c3c(n(Cc4ccc(Cl)cc4)c2C)CCCC3)ccn1 [Compound I-18, 2-(1-(4-chlorobenzyl)-2-methyl-4,5,6,7-tetrahydro-1H-indol-3-yl)-N-(2-methoxypyridin-4-yl)-2-oxoacetamide] | 0.021 µM |
| COc1cc(NC(=O)C(=O)c2c3c(n(Cc4ccc(Cl)cc4)c2C)CCCCCC3)ccn1 [Compound I-11, 2-(1-(4-chlorobenzyl)-2-methyl-4,5,6,7,8,9-hexahydro-1H-cycloocta[b]pyrrol-3-yl)-N-(2-methoxypyridin-4-yl)-2-oxoacetamide] | 0.08 µM |
| Cc1c(C(=O)C(=O)Nc2cccc(Cl)c2)c2c(n1Cc1ccc(Cl)cc1)CCCCCC2 [Compound I-10, 2-(1-(4-chlorobenzyl)-2-methyl-4,5,6,7,8,9-hexahydro-1H-cycloocta[b]pyrrol-3-yl)-N-(3-chlorophenyl)-2-oxoacetamide] | 0.605 µM |
